Assay results taken from ChEMBL document CHEMBL4732026, “Benzimidazole-1,2,3-triazole hybrid molecules: synthesis and study of their interaction with G-quadruplex DNA” (RSC Med Chem, 2021).
Calls of active or inactive are those of the source. The calls are words filed in the database; no cut-off is given here.

Tests used:
PC-3 [1] = assay: Cytotoxicity against human PC3 cells assessed as reduction in cell viability measured after 72 hrs by MTT assay; type: functional, cell-based; settings: PC-3, 72 h
B16-F10 = assay: Cytotoxicity against mouse B16-F10 cells assessed as reduction in cell viability measured after 72 hrs by MTT assay; type: functional, cell-based; settings: B16-F10, 72 h
Quadruplex DNA [2] = assay: Binding affinity to c-Myc G-quadruplex DNA (unknown origin) assessed as dissociation constant incubated for 5 mins by UV- vis spectrophotometric analysis; type: nucleic-acid assay
dsDNA [3] = assay: Binding affinity to double strand DNA (unknown origin) assessed as dissociation constant incubated for 5 mins by UV- vis spectrophotometric analysis; type: nucleic-acid assay
PC-3 [4] = assay: Induction of cell cycle arrest in human PC3 cells assessed as accumulation at G1 phase at 50 uM after 48 hrs by propidium iodide staining based flow cytometry (reference value: 5%); type: functional
PC-3 [5] = assay: Induction of cell cycle arrest in human PC3 cells assessed as accumulation at S phase at 50 uM after 48 hrs by propidium iodide staining based flow cytometry (reference value: 1.8%); type: functional
PC-3 [6] = assay: Induction of cell cycle arrest in human PC3 cells assessed as accumulation at G2/M phase at 50 uM after 48 hrs by propidium iodide staining based flow cytometry (reference value: 1.4%); type: functional
PC-3 [7] = assay: Induction of cell cycle arrest in human PC3 cells assessed as accumulation at Sub G1 phase at 55 uM after 48 hrs by propidium iodide staining based flow cytometry (reference value: 0.1%); type: functional
PC-3 [8] = assay: Induction of cell cycle arrest in human PC3 cells assessed as accumulation at G1 phase at 55 uM after 48 hrs by propidium iodide staining based flow cytometry (reference value: 5%); type: functional
PC-3 [9] = assay: Induction of cell cycle arrest in human PC3 cells assessed as accumulation at S phase at 55 uM after 48 hrs by propidium iodide staining based flow cytometry (reference value: 1.8%); type: functional
PC-3 [10] = assay: Induction of apoptosis in human PC-3 cells assessed as viable cells at 50 uM after 48 hrs by Annexin V based flow cytometric analysis (reference value: 89.57%); type: functional; settings: read-out: Activity
PC-3 [11] = assay: Induction of apoptosis in human PC-3 cells assessed as late apoptic cells at 50 uM after 48 hrs by Annexin V based flow cytometric analysis (reference value: 9.24%); type: functional
PC-3 [12] = assay: Induction of apoptosis in human PC-3 cells assessed as early apoptic cells at 50 uM after 48 hrs by Annexin V based flow cytometric analysis (reference value: 0.40%); type: functional
PC-3 [13] = assay: Induction of apoptosis in human PC-3 cells assessed as viable cells at 55 uM after 48 hrs by Annexin V based flow cytometric analysis (reference value: 89.57%); type: functional; settings: read-out: Activity
PC-3 [14] = assay: Induction of apoptosis in human PC-3 cells assessed as necrotic cells at 55 uM after 48 hrs by Annexin V based flow cytometric analysis (reference value: 0.79%); type: functional
PC-3 [15] = assay: Induction of apoptosis in human PC-3 cells assessed as late apoptic cells at 55 uM after 48 hrs by Annexin V based flow cytometric analysis (reference value: 9.24%); type: functional
[16] = Induction of apoptosis in CHO-K1 cells assessed as viable cells at 60 uM after 48 hrs by Annexin V based flow cytometric analysis (reference value: 93.71%); type: cell-based, Cricetulus griseus; settings: chinese hamster, read-out: Activity
CHO-K1 [17] = assay: Induction of apoptosis in CHO-K1 cells assessed as necrotic cells at 60 uM after 48 hrs by Annexin V based flow cytometric analysis (reference value: 0.70%); type: cell-based, Cricetulus griseus; settings: chinese hamster, cho-k1, 48 h
CHO-K1 [18] = assay: Induction of apoptosis in CHO-K1 cells assessed as late apoptic cells at 60 uM after 48 hrs by Annexin V based flow cytometric analysis (reference value: 1.01%); type: cell-based, Cricetulus griseus; settings: chinese hamster, cho-k1, 48 h
CHO-K1 [19] = assay: Induction of apoptosis in CHO-K1 cells assessed as apoptic cells at 60 uM after 48 hrs by Annexin V based flow cytometric analysis (reference value: 6.29%); type: cell-based, Cricetulus griseus; settings: chinese hamster, cho-k1, 48 h
[20] = Induction of apoptosis in CHO-K1 cells assessed as viable cells at 65 uM after 48 hrs by Annexin V based flow cytometric analysis (reference value: 93.71%); type: cell-based, Cricetulus griseus; settings: chinese hamster, read-out: Activity
CHO-K1 [21] = assay: Induction of apoptosis in CHO-K1 cells assessed as necrotic cells at 65 uM after 48 hrs by Annexin V based flow cytometric analysis (reference value: 0.70%); type: cell-based, Cricetulus griseus; settings: chinese hamster, cho-k1, 48 h
CHO-K1 [22] = assay: Induction of apoptosis in CHO-K1 cells assessed as early apoptic cells at 65 uM after 48 hrs by Annexin V based flow cytometric analysis (reference value: 4.58%); type: cell-based, Cricetulus griseus; settings: chinese hamster, cho-k1, 48 h
CHO-K1 [23] = assay: Induction of apoptosis in CHO-K1 cells assessed as late apoptic cells at 65 uM after 48 hrs by Annexin V based flow cytometric analysis (reference value: 1.01%); type: cell-based, Cricetulus griseus; settings: chinese hamster, cho-k1, 48 h
Quadruplex DNA [24] = assay: Binding affinity to Tel Q G-quadruplex DNA (unknown origin) assessed as hypsochromic shift at 8.5 uM incubated for 5 mins by UV- vis spectrophotometric analysis; type: nucleic-acid assay
Quadruplex DNA [25] = assay: Binding affinity to c-Myc G-quadruplex DNA (unknown origin) assessed as hypsochromic shift at 8.5 uM incubated for 5 mins by UV- vis spectrophotometric analysis; type: nucleic-acid assay
dsDNA [26] = assay: Binding affinity to double strand DNA (unknown origin) assessed as hypsochromic shift at 8.5 uM incubated for 5 mins by UV- vis spectrophotometric analysis; type: nucleic-acid assay
Quadruplex DNA [27] = assay: Binding affinity to c-Myc G-quadruplex DNA (unknown origin) assessed as hyperchromicity at 8.5 uM incubated for 5 mins by UV- vis spectrophotometric analysis; type: nucleic-acid assay
dsDNA [28] = assay: Binding affinity to double strand DNA (unknown origin) assessed as hyperchromicity at 8.5 uM incubated for 5 mins by UV- vis spectrophotometric analysis; type: nucleic-acid assay
Quadruplex DNA [29] = assay: Stabilization of Tel Q G-quadruplex DNA (unknown origin) assessed as change in melting temperature at 8.5 uM incubated for 5 mins by UV-visible thermal denaturation study; type: nucleic-acid assay
Quadruplex DNA [30] = assay: Stabilization of c-Myc G-quadruplex DNA (unknown origin) assessed as change in melting temperature at 8.5 uM incubated for 5 mins by UV-visible thermal denaturation study; type: nucleic-acid assay
Quadruplex DNA [31] = assay: Stabilization of Tel Q G-quadruplex DNA (unknown origin) assessed as increase in life time of DNA and compound complex at 8.5 uM incubated for 5 mins by fluorescence lifetime study; type: nucleic-acid assay
dsDNA [32] = assay: Stabilization of double strand DNA (unknown origin) assessed as increase in life time of DNA and compound complex at 8.5 uM incubated for 5 mins by fluorescence lifetime study; type: nucleic-acid assay
Quadruplex DNA [33] = assay: Binding affinity to c-Myc G-quadruplex DNA (unknown origin) assessed as increase in intensity of positive and negative peaks at 10 to 40 uM by circular dichroism spectra; type: nucleic-acid assay; settings: dose 10-40 µM
Quadruplex DNA [34] = assay: Binding affinity to Tel Q G-quadruplex DNA (unknown origin) assessed as increase in intensity of positive and negative peaks at 10 to 40 uM by circular dichroism spectra; type: nucleic-acid assay; settings: dose 10-40 µM
dsDNA [35] = assay: Binding affinity to double strand DNA (unknown origin) assessed as increase in intensity of positive and negative peaks at 10 to 40 uM by circular dichroism spectra; type: nucleic-acid assay; settings: dose 10-40 µM
Quadruplex DNA [36] = assay: Binding affinity to Tel Q G-quadruplex DNA (unknown origin) assessed as increase in viscosity at 15 uM by EtBr/Hoechst 33342 method; type: nucleic-acid assay

- Kd (Quadruplex DNA [2]): 113 µM
- Kd (dsDNA [3]): 175 µM
- Activity (Quadruplex DNA [24]): 2.5 nm
- Activity (Quadruplex DNA [25]): 5 nm
- Activity (dsDNA [26]): 5.6 nm
- Activity (Quadruplex DNA [27]): 27.3%
- Activity (dsDNA [28]): 13.1%
- ΔTm (Quadruplex DNA [29]): 14 °C
- ΔTm (Quadruplex DNA [30]): 5 °C
- Activity (Quadruplex DNA [31]): Active
- Activity (dsDNA [32]): Active
- Activity (Quadruplex DNA [33]): Active
- Activity (Quadruplex DNA [34]): Active
- Activity (dsDNA [35]): inactive
- Activity (Quadruplex DNA [36]): Active
Structure (SMILES): O=C(Cn1cc(CSc2nc3cc(OC(F)F)ccc3[nH]2)nn1)NC1CCCCC1
- IC50 (PC-3 [1]): 53.3 µM
- IC50 (B16-F10): 84.7 µM
- Activity (PC-3 [4]): 8.9%
- Activity (PC-3 [5]): 5.3%
- Activity (PC-3 [6]): 9.6%
- Activity (PC-3 [7]): 0.8%
- Activity (PC-3 [8]): 18.2%
- Activity (PC-3 [9]): 7.9%
- viability at 50 µM (PC-3 [10]): 87.3%
- Activity (PC-3 [11]): 9.39%
- Activity (PC-3 [12]): 0.76%
- viability at 55 µM (PC-3 [13]): 81.4%
- Activity (PC-3 [14]): 2.64%
- Activity (PC-3 [15]): 13.75%
- viability at 48 h, 60 µM [16]: 86%
- Activity (CHO-K1 [17]): 1.97%
- Activity (CHO-K1 [18]): 1.62%
- Activity (CHO-K1 [19]): 13.98%
- viability at 48 h, 65 µM [20]: 84.4%
- Activity (CHO-K1 [21]): 1.72%
- Activity (CHO-K1 [22]): 11.75%
- Activity (CHO-K1 [23]): 2.16%
